Reference: patent US20110177156A1, “Sterol-Modified Amphiphilic Lipids” (priority 2007, published 2011)
Where two headings read alike, the source gives them in different places. One block for each compound: values may come before it.

Assays:
C26 colon carcinoma = assay: Survival of Balb/C mice tumored with C26 colon carcinoma after doxorubicin delivered in liposomes of various compositions; format: in vivo; conditions: Dose of Dox 10 mg/kg, s.c. C26 tumors
Procedure: The effect of these formulations on tumor progression and animal survival were compared against the effect non-encapsulated doxorubicin or Doxil™, a commercial liposome formulation of doxorubicin that is approved by the Food and Drug Administration in the Balb/C mice tumored with C26 colon carcinoma. (FIGS. 8 and 9, Table 3).
Drug loaded liposomes of defined size were prepared by methods well known in the art and described in, for example, (Liposomes: 2nd edition, Oxford University Press, 2003, V. Torchilin and V. Weissig., Ed.). Lipid films were prepared by drying 10 μmoles of lipid mixtures dissolved in chloroform under a reduced pressure in glass tubes using a rotary evaporator at room temperature, followed by an overnight exposure to a high vacuum. Liposomes were prepared by rehydrating the thin lipid film above the transition temperature of the lipid in a sterile 250 mM ammonium sulfate solution in screw-capped glass tubes, followed by sonication in a bath type sonicator for 10 minutes at 60° C. The liposome preparation was then extruded through 0.1 micron polycarbonate membranes. […] Mean vesicle diameters as measured by dynamic light scattering using the multimodal program ranged between 85-140 nm with a monodisperse particle size distribution (Malvern Instruments, UK). […]
All animal experiments were performed in compliance with the NIH guidelines for animal research under a protocol approved by the Committee on Animal Research at the University of California, San Francisco. […] Mice were weighed and tumor sizes were monitored daily during the experimental period. The tumor volume was estimated by measuring three orthogonal diameters (a, b, and c) with calipers; the volume was calculated as (a×b×c)×0.5 cm^3. […] In each experiment the mice were monitored for up to 60 days post-inoculation or until one of the following conditions for euthanasia was met: 1) their body weight dropped below 15% of their initial mass; 2) their tumor was greater than 2.0 cm across in any dimension; 3) they became lethargic or sick and unable to feed; or 4) they were found dead. […]

[1] = Cholesterol exchange from donor liposomes to POPC acceptor liposomes at 37° C.; format: physicochemical; conditions: for exchange of cholesterol out of donor liposomes: PChcPC/DPPC/DPPG (50/40/10), DChcPC/DPPC/DPPG (25/65/10), POPC acceptor
Procedure: Unilamellar liposomes were prepared by extrusion method. […] Specifically, the three donor liposomes were formulated at the following molar ratios: 1) […] (50/40/10), 2) […] (25/65/10), 3) Chol/DPPC/DPPG (40/50/10). Neutral 1-palmitoyl-2-oleoyl-sn-glycero-3-phosphocholine (POPC) liposome was used as the acceptor. After extrusion, the diameter of the donor liposomes was around 100 nm, and 140 nm for the acceptor liposome. For the exchange experiments, 1 mL donor liposomes (10 mM) and 1 mL acceptor liposomes (100 mM, 10 fold) were warmed at 37° C. first, then mixed and incubated at 37° C. An aliquot (250 μL) of mixture was sampled at given time point and applied to a small (ca. 1 cm in length) anion exchange column (Q-Sepharose XL). The column was pretreated with 0.1 mL 10 mM POPC before the loading of the exchange sample to reduce the nonspecific binding of the neutral liposome. The column was eluted with 1 mL 10 mM NaCl, 10 mM HEPES pH 7.4 buffer. The eluate was lyophilized and analyzed by the cholesterol assay to quantify the amount of cholesterol exchanged.

[2] = SML:PC:AmB=2:2:1 (mole) liposomes, stored at 4° C.
[3] = format: physicochemical
Procedure: SML16m was designed to have a large surface area than conventional phospholipids by replacing of the hydrophobic lipid chain with an amphiphilic poly(ethylene glycol) chain. […] Unlike conventional amphiphilic molecules, SML16m solution doesn't foam when agitated, but forms a thin membrane along the glass wall above the solution surface. SML16m can effectively solubilize amphotericin B at molar ratios of 1:1 or higher to obtain a concentration of 5 mg/mL. SML16m can also be formulated with other lipids to achieve small liposomes.

[4] = calcein liposomes, 37° C., compared with DMPC liposomes
[5] = Leakage of calcein from liposomes in 30% fetal bovine serum at 37° C.
[6] = test system: C26 colon carcinoma cells; conditions: MTT, concentration as high as 1 mM
[7] = Differential scanning calorimetry of SMLs and SML/diacyl lipid mixtures; format: physicochemical
Excerpt: Specific SMLs were used as the model compounds to study the properties of the SML compounds. Phase behavior is one of the most important properties of lipid bilayers and is associated with various biological functions of cell membranes. Addition of free cholesterol to the phospholipid bilayer will change the phase behavior of the bilayer due to the mixing of free cholesterol with the glycerolipids and sphingolipids as well as the effect the isoprenol tail of free cholesterol exerts on the acyl chain packing in the bilayer. Using differential scanning calorimetry it was shown that the SMLs exert a similar effect as free cholesterol on acyl chain packing in bilayers composed of synthetic lipids. […] The equivalent sterol molar percentage in the mixture of m-SML and diacyl lipid is calculated according to the method of conventional lipid mixture with the following formula: Sterol %=[…])×100, wherein: For example, a pure m-SML has one sterol and one acyl chain, thus the equivalent free sterol percentage is 1/1.5×100=67. […]

Compound: COc1cccc2c1C(=O)c1c(O)c3c(c(O)c1C2=O)C[C@@](O)(C(=O)CO)C[C@@H]3O[C@H]1C[C@H](N)[C@H](O)[C@H](C)O1 [Free Dox, Doxorubicin]
# of Animals Surviving at Day 60 (n = 5) (C26 colon carcinoma): 0
Median Survival Day (C26 colon carcinoma): 26 days
# of Animals Surviving at Day 60 (n = 5) (C26 colon carcinoma; listed as non-encapsulated doxorubicin): no animals survived to 60 days

half time for cholesterol exchange ([1]; free cholesterol in a conventional liposome (Chol/DPPC/DPPG 40/50/10)): ~2 h
Compound: CC(C)CCC[C@@H](C)[C@H]1CC[C@H]2[C@@H]3CC=C4C[C@@H](O)CC[C@]4(C)[C@H]3CC[C@]12C [free cholesterol, cholesterol, reference compound]

Compound: CCCCCCCCCCCCCCCCOCC(COP(=O)([O-])OCC[N+](C)(C)C)OC(=O)OC1CCC2(C)C(=CCC3C2CCC2(C)C(C(C)CCCC(C)C)CCC32)C1 (racemic) [SML4b, 1-Palmityl-2-cholesterylcarbonoyl-rac-glycero-3-phosphocholine]
stability of formulation at 4° C. [2]: more than one year

Compound: CCCCCCCCCCCCCCOCC(COP(=O)([O-])OCC[N+](C)(C)C)OC(=O)OC1CCC2(C)C(=CCC3C2CCC2(C)C(C(C)CCCC(C)C)CCC32)C1 (racemic) [SML4c, 1-Myristyl-2-cholesterylcarbonoyl-rac-glycero-3-phosphocholine]
stability of formulation at 4° C. [2]: more than one year

concentration of amphotericin B solubilized [3]: 5000 µg/mL
solubility in water [3]: dissolves in water easily
Compound: COCCOCCOCCOCCOCCOCCOCCOCCC(=O)O[C@H](COC(=O)CCC(=O)O[C@H]1CC[C@@]2(C)C(=CC[C@H]3[C@@H]4CC[C@H]([C@H](C)CCCC(C)C)[C@@]4(C)CC[C@@H]32)C1)COP(=O)([O-])OCC[N+](C)(C)C [SML16m, 1-cholesterylhemisuccinoyl-2-(2,5,8,11,14,17,20,23-octaoxahexacosan-26-oyl)-sn-glycero-3-phosphocholine]

Compound: CCCCCCCCCCCCCCCCCC(=O)OCC(COP(=O)([O-])OCC[N+](C)(C)C)OC(=O)OC1CCC2(C)C(=CCC3C2CCC2(C)C(C(C)CCCC(C)C)CCC32)C1 (centres unmarked) [SML5a, 1-Stearoyl-2-cholesterylcarbonoyl-sn-glycero-3-phosphocholine]
stability of formulation at 4° C. [2]: more than one year

Compound: CCCCCCCCCCCCCCNC(=O)O[C@H](COC(=O)O[C@H]1CC[C@@]2(C)C(=CC[C@H]3[C@@H]4CC[C@H]([C@H](C)CCCC(C)C)[C@@]4(C)CC[C@@H]32)C1)COP(=O)([O-])OCC[N+](C)(C)C [SML1c, 1-Cholesterylcarbonoyl-2-myristylcarbamoyl-sn-glycero-3-phosphocholine]
osmotic leakage profile / stability under osmotic gradients [4]: no difference in osmotic induced release
osmotic leakage profile / stability under osmotic gradients ([4]; listed as ChcMaPC): good stability
leakage profile of calcein from liposomes ([5]; 37° C., 4 weeks): remained intact
leakage of calcein in 28 days ([5]; 28 days): less than 1%

Compound: CCCCCCCCCCCCCCCCCCNC(=O)OC(COC(=O)OC1CCC2(C)C(=CCC3C2CCC2(C)C(C(C)CCCC(C)C)CCC32)C1)COP(=O)([O-])OCC[N+](C)(C)C (centres unmarked) [SML1a, 1-Cholesterylcarbonoyl-2-stearylcarbamoyl-sn-glycero-3-phosphocholine]
cytotoxicity [6]: certain cytotoxicity

equivalent cholesterol at which the phase transition is eliminated completely ([7]; SML mixed with diacyl lipid of the same chain length (C-16)): 30%
Compound: 1-Cholesterylcarbonoyl-2-palmityl-rac-glycero-3-phosphocholine [SML2b]

new transition in DSC trace ([7]; DChcPC/DPPC mixtures, equivalent free cholesterol 30 mole percent): around 20 °C
Compound: CC(C)CCC[C@@H](C)[C@H]1CC[C@H]2[C@@H]3CC=C4C[C@@H](OC(=O)OC[C@H](COP(=O)([O-])OCC[N+](C)(C)C)OC(=O)O[C@H]5CC[C@@]6(C)C(=CC[C@H]7[C@@H]8CC[C@H]([C@H](C)CCCC(C)C)[C@@]8(C)CC[C@@H]76)C5)CC[C@]4(C)[C@H]3CC[C@]12C [SML6a, 1,2-Dicholesterylcarbonoyl-sn-glycero-3-phosphocholine]
exchange of cholesterol out of donor liposomes [1]: very little or no detectable exchange of cholesterol

Compound: CCCCCCCCCCCCCCCC(=O)OCC(COP(=O)([O-])OCC[N+](C)(C)C)OC(=O)OC1CCC2(C)C(=CCC3C2CCC2(C)C(C(C)CCCC(C)C)CCC32)C1 (centres unmarked) [SML5b, 1-Palmitoyl-2-cholesterylcarbonoyl-sn-glycero-3-phosphocholine]
exchange of cholesterol out of donor liposomes [1]: very little or no detectable exchange of cholesterol
stability of formulation at 4° C. [2]: more than one year

Compound: CCCCCCCCCCCCCCCCNC(=O)OC(COC(=O)OC1CCC2(C)C(=CCC3C2CCC2(C)C(C(C)CCCC(C)C)CCC32)C1)COP(=O)([O-])OCC[N+](C)(C)C (centres unmarked) [SML1b, 1-Cholesterycarbonoyl-2-palmitylcarbamoyl-sn-glycero-3-phosphocholine]
cytotoxicity [6]: certain cytotoxicity
